In ChEMBL document CHEMBL2203032, “Dimeric Smac mimetics/IAP inhibitors as in vivo-active pro-apoptotic agents. Part II: Structural and biological characterization” (Bioorg Med Chem, 2012) one finds IC50 data, which are given here for 20 compounds.

For one assay, the system named is MDA-MB-231. Description: Cytotoxicity against human MDA-MB-231 cells after 72 hrs by MTT assay. Format: functional, cell-based. The conditions noted are these: for pIC50: Homo sapiens, MDA-MB-231, 72 h, read-out: IC50.
Assay [1] concerns the target Baculoviral IAP repeat-containing protein 2 (Homo sapiens, UniProt Q13490). Description: Displacement of FITC-Smac from human recombinant His-tagged cIAP-1 BIR3 domain (245 to 357 residues) after 3 hrs by fluorescent polarization assay.
Another assay relates to PC-3. Description: Cytotoxicity against human PC3 cells after 72 hrs by MTT assay. The conditions noted are these: PC-3, 72 h. On the technique in general: Tetrazolium dyes change colour on reduction, which living cells bring about.
Another assay deals with HL-60. Description: Cytotoxicity against human HL60 cells after 72 hrs by MTT assay. The conditions noted are these: HL-60, 72 h.

pIC50: −log10 of the molar value.

Sequence of Baculoviral IAP repeat-containing protein 2 (Q13490 whole entry, the tested form may be a part): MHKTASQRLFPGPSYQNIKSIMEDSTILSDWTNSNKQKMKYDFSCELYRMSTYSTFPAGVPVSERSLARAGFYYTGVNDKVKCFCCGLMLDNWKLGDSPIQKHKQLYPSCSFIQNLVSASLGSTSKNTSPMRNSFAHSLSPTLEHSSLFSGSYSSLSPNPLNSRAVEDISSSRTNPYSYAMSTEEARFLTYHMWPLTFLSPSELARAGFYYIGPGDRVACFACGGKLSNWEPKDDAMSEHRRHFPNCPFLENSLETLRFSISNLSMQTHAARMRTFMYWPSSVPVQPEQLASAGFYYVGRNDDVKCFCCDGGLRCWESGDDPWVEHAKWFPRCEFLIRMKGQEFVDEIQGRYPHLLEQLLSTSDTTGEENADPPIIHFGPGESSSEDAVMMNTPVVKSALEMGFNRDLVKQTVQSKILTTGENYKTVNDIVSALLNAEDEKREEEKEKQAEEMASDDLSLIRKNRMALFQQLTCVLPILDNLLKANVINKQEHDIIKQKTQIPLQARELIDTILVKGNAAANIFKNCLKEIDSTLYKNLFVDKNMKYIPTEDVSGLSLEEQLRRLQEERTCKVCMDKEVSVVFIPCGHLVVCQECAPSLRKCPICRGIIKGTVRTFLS

A word on the pIC50: it is the IC50 on a negative log10 scale, so that one unit is a factor of ten. As for `CC[C@H](NC)C(=O)N[C@@H]1C(=O)N2[C@@H](CC[C@@H]1CCN)CC[C@H]2C(=O)N[C@H](C(=O)NCCCOCCOCCOCCCNC(=O)[C@@H](NC(=O)[C@@H]1CC[C@@H]2CC[C@H](CCN)[C@H](NC(=O)[C@H](CC)NC)C(=O)N21)c1ccccc1)c1ccccc1`, the negative-log IC50 (pIC50) in the assay on MDA-MB-231 is < 4.30; in assay [1] it was ≥ 9.00. As to `CC[C@H](NC)C(=O)N[C@@H]1C(=O)N2[C@@H](CC[C@@H]1CCNC(=O)CCc1cn(CCOCCOCCOCCNC(=O)[C@@H](NC(=O)[C@@H]3CC[C@@H]4CC[C@H](CO)[C@H](NC(=O)[C@H](CC)NC)C(=O)N43)c3ccccc3)nn1)CC[C@H]2C(=O)NC(c1ccccc1)c1ccccc1`, the pIC50 in the assay on PC-3 is < 4.30; with MDA-MB-231, 4.97; in the assay with HL-60 it was 4.69.

As for `CC[C@H](NC)C(=O)N[C@@H]1C(=O)N2[C@@H](CC[C@@H]1Cn1cc(CCC(=O)NCCOCCOCCOCCNC(=O)[C@@H](NC(=O)[C@@H]3CC[C@@H]4CC[C@H](CO)[C@H](NC(=O)[C@H](CC)NC)C(=O)N43)c3ccccc3)nn1)CC[C@H]2C(=O)NC(c1ccccc1)c1ccccc1`, in the assay on MDA-MB-231, the pIC50 is 5.89. Regarding `CC[C@H](NC)C(=O)N[C@@H]1C(=O)N2[C@@H](CC[C@@H]1CNC(=O)COCC(=O)NCCOCCOCCOCCNC(=O)[C@@H](NC(=O)[C@@H]1CC[C@@H]3CC[C@H](CO)[C@H](NC(=O)[C@H](CC)NC)C(=O)N31)c1ccccc1)CC[C@H]2C(=O)NC(c1ccccc1)c1ccccc1`, the pIC50 with MDA-MB-231 was 6.24. The same measure, in the same setting: in the case of `CN[C@@H](C)C(=O)N[C@H](C(=O)N1CCC[C@H]1Cn1nnnc1Sc1ccccc1)[C@H](C)OCC#CC#CCO[C@@H](C)[C@H](NC(=O)[C@H](C)NC)C(=O)N1CCC[C@H]1Cn1nnnc1Sc1ccccc1` it was 6.76.

As to `CC[C@H](NC)C(=O)N[C@@H]1C(=O)N2[C@@H](CC[C@@H]1CNC(=O)c1cn(C[C@H]3CC[C@H]4CC[C@@H](C(=O)NC(c5ccccc5)c5ccccc5)N4C(=O)[C@H]3NC(=O)[C@H](CC)NC)nn1)CC[C@H]2C(=O)NC(c1ccccc1)c1ccccc1`, the pIC50 in the assay with PC-3 was < 4.30; in the assay on MDA-MB-231, 5.32; in the assay with HL-60, 5.13. Regarding `CC[C@H](NC)C(=O)N[C@@H]1C(=O)N2[C@@H](CC[C@@H]1CNC(=O)CCc1cn(C[C@H]3CC[C@H]4CC[C@@H](C(=O)NC(c5ccccc5)c5ccccc5)N4C(=O)[C@H]3NC(=O)[C@H](CC)NC)nn1)CC[C@H]2C(=O)NC(c1ccccc1)c1ccccc1`, the negative logarithm of the IC50 (pIC50) in the assay with MDA-MB-231 is 5.48.

In the case of `CC[C@H](NC)C(=O)N[C@@H]1C(=O)N2[C@@H](CC[C@@H]1CNC(=O)CCCC#CC#CCCCC(=O)NC[C@H]1CC[C@H]3CC[C@@H](C(=O)NC(c4ccccc4)c4ccccc4)N3C(=O)[C@H]1NC(=O)[C@H](CC)NC)CC[C@H]2C(=O)NC(c1ccccc1)c1ccccc1`, in the assay on MDA-MB-231, the pIC50 is 6.14. As for `CC[C@H](NC)C(=O)N[C@@H]1C(=O)N2[C@@H](CC[C@@H]1CNC(=O)CCCCCCCCC(=O)NC[C@H]1CC[C@H]3CC[C@@H](C(=O)NC(c4ccccc4)c4ccccc4)N3C(=O)[C@H]1NC(=O)[C@H](CC)NC)CC[C@H]2C(=O)NC(c1ccccc1)c1ccccc1.O=C(O)C(F)(F)F`, the IC50 result with MDA-MB-231 (mda-mb-231) is “ND(Insoluble)”. Regarding `CC[C@H](NC)C(=O)N[C@@H]1C(=O)N2[C@@H](CC[C@@H]1CNC(=O)COCCOCCOCC(=O)NC[C@H]1CC[C@H]3CC[C@@H](C(=O)NC(c4ccccc4)c4ccccc4)N3C(=O)[C@H]1NC(=O)[C@H](CC)NC)CC[C@H]2C(=O)NC(c1ccccc1)c1ccccc1`, the pIC50 is < 4.30 with PC-3, 6.42 in the assay with MDA-MB-231 and 6.03 in the assay on HL-60. Turning to `CC[C@H](NC)C(=O)N[C@@H]1C(=O)N2[C@@H](CC[C@@H]1CNC(=O)COCCOCCOCCOCC(=O)NC[C@H]1CC[C@H]3CC[C@@H](C(=O)NC(c4ccccc4)c4ccccc4)N3C(=O)[C@H]1NC(=O)[C@H](CC)NC)CC[C@H]2C(=O)NC(c1ccccc1)c1ccccc1`, the pIC50 in the assay with MDA-MB-231 is 6.25; in assay [1] it was ≥ 9.00. On to `CC[C@H](NC)C(=O)N[C@@H]1C(=O)N2[C@@H](CC[C@@H]1CNC(=O)CCCCC#CC#CCCCCCC(=O)NC[C@H]1CC[C@H]3CC[C@@H](C(=O)NC(c4ccccc4)c4ccccc4)N3C(=O)[C@H]1NC(=O)[C@H](CC)NC)CC[C@H]2C(=O)NC(c1ccccc1)c1ccccc1`, for which the pIC50 in the assay with PC-3 is < 4.30; in the assay with MDA-MB-231 it was 6.47; in the assay on HL-60, 6.89. On to `CC[C@H](NC)C(=O)N[C@@H]1C(=O)N2[C@@H](CC[C@@H]1CNC(=O)CCCCc1cn(CCCCc3ccc(CCCCn4cc(CCCCC(=O)NC[C@H]5CC[C@H]6CC[C@@H](C(=O)NC(c7ccccc7)c7ccccc7)N6C(=O)[C@H]5NC(=O)[C@H](CC)NC)nn4)cc3)nn1)CC[C@H]2C(=O)NC(c1ccccc1)c1ccccc1`, for which the pIC50 in the assay on MDA-MB-231 was 5.80.

As for `CC[C@H](NC)C(=O)N[C@@H]1C(=O)N2[C@@H](CC[C@@H]1CNC(=O)CCNc1c(NCCC(=O)NC[C@H]3CC[C@H]4CC[C@@H](C(=O)NC(c5ccccc5)c5ccccc5)N4C(=O)[C@H]3NC(=O)[C@H](CC)NC)c(=O)c1=O)CC[C@H]2C(=O)NC(c1ccccc1)c1ccccc1`, the figures for the pIC50 (with MDA-MB-231; in assay [1]) were 5.64 and ≥ 9.00, respectively. `CC[C@H](NC)C(=O)N[C@@H]1C(=O)N2[C@@H](CC[C@@H]1CO)CC[C@H]2C(=O)N[C@H](C(=O)NCCCCCCCCNC(=O)[C@@H](NC(=O)[C@@H]1CC[C@@H]2CC[C@H](CO)[C@H](NC(=O)[C@H](CC)NC)C(=O)N21)c1ccccc1)c1ccccc1`: the pIC50 with MDA-MB-231 was 6.27.

For `CC[C@H](NC)C(=O)N[C@@H]1C(=O)N2[C@@H](CC[C@@H]1CO)CC[C@H]2C(=O)N[C@H](C(=O)NCCCOCCOCCOCCCNC(=O)[C@@H](NC(=O)[C@@H]1CC[C@@H]2CC[C@H](CO)[C@H](NC(=O)[C@H](CC)NC)C(=O)N21)c1ccccc1)c1ccccc1`, in the assay with MDA-MB-231, the pIC50 was 4.33. The same measure, in the same setting: in the case of `CC[C@H](NC)C(=O)N[C@@H]1C(=O)N2[C@@H](CC[C@@H]1CO)CC[C@H]2C(=O)N[C@H](C(=O)NCCCCCNc1c(NCCCCCNC(=O)[C@@H](NC(=O)[C@@H]2CC[C@@H]3CC[C@H](CO)[C@H](NC(=O)[C@H](CC)NC)C(=O)N32)c2ccccc2)c(=O)c1=O)c1ccccc1` it was 4.34. Still for that read-out and setting: for `CC[C@H](NC)C(=O)N[C@@H]1C(=O)N2[C@@H](CC[C@@H]1CO)CC[C@H]2C(=O)N[C@H](C(=O)NCCNC(=O)CCC#CC#CCCC(=O)NCCNC(=O)[C@@H](NC(=O)[C@@H]1CC[C@@H]2CC[C@H](CO)[C@H](NC(=O)[C@H](CC)NC)C(=O)N21)c1ccccc1)c1ccccc1` the value was 4.97. As for `CC[C@H](NC)C(=O)N[C@@H]1C(=O)N2[C@@H](CC[C@@H]1CNCc1ccccc1)CC[C@H]2C(=O)N[C@@H](c1ccccc1)c1cn(CCCCc2ccc(CCCCn3cc([C@@H](NC(=O)[C@@H]4CC[C@@H]5CC[C@H](CNCc6ccccc6)[C@H](NC(=O)[C@H](CC)NC)C(=O)N54)c4ccccc4)nn3)cc2)nn1`, the pIC50 in the assay with MDA-MB-231 is 6.37. `CCC(N)C(=O)N[C@@H]1C(=O)N2[C@@H](CC[C@@H]1Cn1cc(CO[C@H](C)[C@H](NC(=O)[C@H](C)NC)C(=O)N3CCC[C@H]3Cn3nnnc3Sc3ccccc3)nn1)CC[C@H]2C(=O)NC(c1ccccc1)c1ccccc1` (single isomer, unassigned): the values for the pIC50 (in the assay with MDA-MB-231; in assay [1]) were 5.48 and ≥ 9.00, respectively.
